Reference: paper PMC5729930, “Bitopic fluorescent antagonists of the A2A adenosine receptor based on pyrazolo[4,3-e][1,2,4]triazolo[1,5-c]pyrimidin-5-amine functionalized congeners” (MedChemComm, 2017)

Experiments:
hA2AAR = target: T1, hA2AAR (Homo sapiens, UniProt P29274); test: Flow cytometry saturation binding of fluorescent antagonists in whole cells; assay type: cell-based; settings: hA2AAR-expressing HEK-293 cells; for nonspecific binding: result in words
T1 construct: expressed in transfected cells
Protocol: Compounds 11 and 12 were tested as fluorescent tracers for flow cytometry of HEK-293 cells expressing the hA2AAR (Fig. 4A). […] Thus, 11 tended to bind non-specifically to hydrophobic membranes by undetermined mechanisms. […]. For inhibition studies, the cells were co-incubated for one hour prior to flow cytometry with fluorescent probe 12 (10 nM) and a test antagonist. […]
Fig. 4 Saturation of fluorescent antagonists 11 (A) and 12 (B) in hA2AAR-expressing HEK-293 cells measured using flow cytometry following a 1 h incubation at 37 °C. Non-specific binding was determined with 10 μM 3. Results are expressed as the mean ± SEM. The Kd value calculated from Fig. 4B is listed in the text.
Cell culture for membrane binding assays and flow cytometry: HEK-293 cells stably expressing the A2AAR were grown in Dulbecco’s Modified Eagle’s Medium (DMEM) with 10% FBS, 100 units/ml penicillin, […] streptomycin, 2 mM L-glutamine and 0.500 mg/mL G418 Sulfate (Geneticin). Cells were maintained in a humidified atmosphere and sterile incubation conditions held at 37 °C and 5% CO2 (g). A day prior to the experiment, cells were plated on a 96 -well clear and flat bottom plate at 80 -90% confluency in 100 µL of medium. […]
Fluorescent binding studies: All binding studies were done in triplicate. For saturation binding studies, cells were treated with 50 µL of 11 (MRS 7396) or 12 (MRS 7416), to achieve a final concentration from 0.19 to 400 nM, and 50 µL of Tris-HCl buffer containing 10 mM MgCl2. Non-specific binding was determined with SCH442416 3 (final concentration of 10 µM, in Tris-HCl buffer). For displacement experiments, cells were incubated simultaneously with 50 µL of 40 nM 11 or 12 (final concentration 10 nM) and 50 µL of the non-labeled displacing ligand at increasing concentrations. The total binding was measured in the absence of a displacing ligand, and non-specific binding was determined with 10 µM 3.
After 1 h at 37 °C (for both the saturation and displacement experiments), the medium was removed and the cells were carefully washed two times with 150 µL of ice-cold PBS (not containing Mg+2 or Ca+2).
The cells were treated with 40 µL of Corning Cellstripper (Mediatech, Manassas, VA) per well and then incubated at 37 °C for 10 min. To each well was subsequently added 160 µL of PBS (not containing Mg+2 or Ca+2), and the cell fluorescence was analyzed with a BD FACSCalibur flow cytometer (Becton, Dickinson and Co., Franklin Lakes, NJ) with excitation at 635 nm (red diode laser, for 11) or 488 nm (blue laser, for 12) in conjunction with the software from BD Bioscience PlateManager and CellQuest. […]
2. Bradford, M. M. A rapid and sensitive method for the quantitation of microgram quantities of protein utilizing the principle of protein -dye binding. […]

mA1AR = target: T2, mA1AR (Mus musculus, UniProt Q60612); test: Competition radioligand binding, mA1AR; settings: for inhibition at 10 µM: mouse A1AR, percent inhibition at 10 μM
T2 construct: expressed in transfected cells; host or cells: HEK-293
T2 sequence (Q60612 1-326): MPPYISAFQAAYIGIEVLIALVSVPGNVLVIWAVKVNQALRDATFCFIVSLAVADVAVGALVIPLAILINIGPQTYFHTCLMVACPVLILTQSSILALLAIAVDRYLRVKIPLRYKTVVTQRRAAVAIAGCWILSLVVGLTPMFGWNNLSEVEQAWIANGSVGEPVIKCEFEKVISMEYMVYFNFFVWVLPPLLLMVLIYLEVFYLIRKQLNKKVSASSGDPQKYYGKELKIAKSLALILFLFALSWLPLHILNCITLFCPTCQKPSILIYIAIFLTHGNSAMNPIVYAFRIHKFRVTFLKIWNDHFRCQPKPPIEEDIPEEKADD
Protocol: The affinity of the amine congeners and other antagonists was measured using standard radioligand binding assays for hA1, A2A and A3ARs (Table 1).[1],[13],[14],[22] Membranes of human embryonic kidney (HEK)293 cells expressing the AR of interest were used in the assay. Primary amine congeners 6a–6d containing spacers of 2–5 methylenes were similar in terms of hA2AAR affinity (Ki 6–9 nM), with the butylamino congener 6c displaying the highest A2AAR selectivity in the series. The affinity of this compound for the hA3AR was determined to be 6.0 μM, with only slightly higher hA1AR affinity. Homologation to 6 methylenes in compound 6e lowered A2AAR affinity. […] No dependence of the affinity on the chain length was evident when comparing AlexaFluor647 conjugates 9 and 10. […]
Radioligand binding assays: Cell membranes were prepared as reported.1
Binding assays were carried out using standard radioligands and membrane preparations from HEK-293 cells stably expressing the human (h) A1, A2A or A3ARs or mouse (m) A1, A2A or A3ARs. The radioligands used were: A1AR, [3H]8-cyclopentyl-1,3-dipropylxanthine 14; A2AAR, [3H]2; A3AR, [125I]N6-(4-amino-3-iodobenzyl)adenosine-5′-N-methyluronamide 16. The radioligand for archival A2AAR affinity data presented in Table 1 was [3H]2-[p-(2-carboxyethyl)phenyl-ethylamino]-5′-N-ethylcarboxamidoadenosine 15. Nonspecific binding was determined using 10 µM 8-[4-[[[[(2-aminoethyl)amino]carbonyl]methyl]oxy]phenyl]-1,3-dipropylxanthine 17 (A1AR and A2AAR) or 10 µM adenosine-5′-N-ethyluronamide 18 (A3AR). HEK-293 cells expressing recombinant mA1, A2A, or A3AR […]
Protein was determined as reported.2 In all the binding experiments, IC50 values and Ki values were calculated using GraphPad Prism software (San Diego, CA). Values are expressed as mean±SEM. […]
Med. Chem. Comm., 2015, 6:555-563.
2. Bradford, M. M. A rapid and sensitive method for the quantitation of microgram quantities of protein utilizing the principle of protein -dye binding. Anal. Biochem. 1976, 72, 248-254.

T1 sequence (P29274 whole entry): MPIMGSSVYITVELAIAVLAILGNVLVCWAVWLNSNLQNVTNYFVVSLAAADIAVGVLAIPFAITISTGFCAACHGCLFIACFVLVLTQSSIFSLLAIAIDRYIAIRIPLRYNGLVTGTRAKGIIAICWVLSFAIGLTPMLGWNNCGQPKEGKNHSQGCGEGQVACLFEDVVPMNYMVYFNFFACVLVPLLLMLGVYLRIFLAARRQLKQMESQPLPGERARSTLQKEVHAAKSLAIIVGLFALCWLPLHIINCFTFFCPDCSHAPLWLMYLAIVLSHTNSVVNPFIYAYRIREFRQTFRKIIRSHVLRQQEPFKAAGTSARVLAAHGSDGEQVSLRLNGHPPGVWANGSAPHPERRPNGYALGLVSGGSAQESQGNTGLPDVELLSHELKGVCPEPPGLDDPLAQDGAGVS

specific binding, % of the total (hA2AAR; 1 h 37 °C, nonspecific with 10 μM 3) [%]	nonspecific binding (hA2AAR)	inhibition at 10 µM (mA1AR) [%]	Kd (hA2AAR; 1 h 37 °C) [nM]	binding to the mA1AR (mA1AR; result in words)	Compound
< 25	high nonspecific binding	0	–	–	Nc1nc2c(cnn2CCCc2ccc(OCC(=O)NCCCCNC(=O)CCCCCNC(=O)COc3ccc(/C=C/C4=[N+]5C(=Cc6ccc(-c7cccs7)n6[B-]5(F)F)C=C4)cc3)cc2)c2nc(-c3ccco3)nn12 [compound 11]
–	low nonspecific binding	0	45.4	–	CCN(CC)CC.CCN(CC)CC.N=c1ccc2c(-c3ccc(C(=O)NCCCCNC(=O)COc4ccc(CCCn5ncc6c5nc(N)n5nc(-c7ccco7)nc65)cc4)cc3C(=O)O)c3ccc(N)c(S(=O)(=O)O)c3oc-2c1S(=O)(=O)O [compound 12]
–	–	21	–	insignificant	N.Nc1nc2c(cnn2CCCc2ccc(OCc3ccc(S(=O)(=O)O)cc3)cc2)c2nc(-c3ccco3)nn12 [compound 13]
